According to PubChem BioAssay AID2060895 (Molecular Pharmacology Branch, DTP, NCI, 2025):
One block for each compound: values may come before it.

Test system: PDC 899932-113-R3-J6 complex spheroid viability
Experiment: Anticancer human tumor 899932-113-R3-J6-PDC patient-derived melanoma cell line growth inhibition [RAS]
Details: for IC50: curve of first compound; for viability, T/C: stronger effect = lower value
Summary of the method: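 Multi-cell-type spheroids: tumor cells plus HUVEC endothelial cells and mesenchymal stem cells. RAS-pathway inhibitors were combined with targeted agents, each dosed in half-log steps down from clinical Cmax, or from 10 microM when Cmax was unknown.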

[1] = second compound 0.00316 µM, first compound 0.0316 µM
[2] = second compound 0.00316 µM, first compound 0.1 µM
[3] = second compound 0.00316 µM, first compound 0.316 µM
[4] = second compound 0.00316 µM, first compound 1 µM
[5] = second compound 0.00316 µM, first compound 3.16 µM
[6] = second compound 0.00316 µM, first compound 10 µM
[7] = second compound 0.01 µM, first compound 0.0316 µM
[8] = second compound 0.01 µM, first compound 0.1 µM
[9] = second compound 0.01 µM, first compound 0.316 µM
[10] = second compound 0.01 µM, first compound 1 µM
[11] = second compound 0.01 µM, first compound 3.16 µM
[12] = second compound 0.01 µM, first compound 10 µM
[13] = second compound 0.0316 µM, first compound 0.0316 µM
[14] = second compound 0.0316 µM, first compound 0.1 µM
[15] = second compound 0.0316 µM, first compound 0.316 µM
[16] = second compound 0.0316 µM, first compound 1 µM
[17] = second compound 0.0316 µM, first compound 3.16 µM
[18] = second compound 0.0316 µM, first compound 10 µM
[19] = second compound 0.1 µM, first compound 0.0316 µM
[20] = second compound 0.1 µM, first compound 0.1 µM
[21] = second compound 0.1 µM, first compound 0.316 µM
[22] = second compound 0.1 µM, first compound 1 µM
[23] = second compound 0.1 µM, first compound 3.16 µM
[24] = second compound 0.1 µM, first compound 10 µM
[25] = second compound 0.316 µM, first compound 0.0316 µM
[26] = second compound 0.316 µM, first compound 0.1 µM
[27] = second compound 0.316 µM, first compound 0.316 µM
[28] = second compound 0.316 µM, first compound 1 µM
[29] = second compound 0.316 µM, first compound 3.16 µM
[30] = second compound 0.316 µM, first compound 10 µM
[31] = second compound 1 µM, first compound 0.0316 µM
[32] = second compound 1 µM, first compound 0.1 µM
[33] = second compound 1 µM, first compound 0.316 µM
[34] = second compound 1 µM, first compound 1 µM
[35] = second compound 1 µM, first compound 3.16 µM
[36] = second compound 1 µM, first compound 10 µM
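Throughout, for viability, T/C: spheroids exposed to agents for seven days before readout; 100% = DMSO vehicle control wells.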

IC50 (second compound 0.00316 µM): > 10 µM
IC50 (second compound 0.01 µM): > 10 µM
IC50 (second compound 0.0316 µM): > 10 µM
IC50 (second compound 0.1 µM): > 10 µM
IC50 (second compound 0.316 µM): > 10 µM
IC50 (second compound 1 µM): > 10 µM
Structure (SMILES): Cc1nc(N2CCC3(CC2)COC(C)C3N)c(CO)nc1Sc1ccnc(N)c1Cl (stereo unspecified) + C=CC(=O)N1CCN(c2nc(OCC3CCCN3C)nc3c(F)c(-c4nc(N)cc(C)c4C(F)(F)F)c(Cl)cc23)C(C)C1
viability, T/C [1]: 110%
viability, T/C [2]: 96.4%
viability, T/C [3]: 102%
viability, T/C [4]: 108%
viability, T/C [5]: 115%
viability, T/C [6]: 127%
viability, T/C [7]: 106%
viability, T/C [8]: 109%
viability, T/C [9]: 113%
viability, T/C [10]: 107%
viability, T/C [11]: 119%
viability, T/C [12]: 118%
viability, T/C [13]: 99.7%
viability, T/C [14]: 98.5%
viability, T/C [15]: 117%
viability, T/C [16]: 108%
viability, T/C [17]: 120%
viability, T/C [18]: 126%
viability, T/C [19]: 99.5%
viability, T/C [20]: 108%
viability, T/C [21]: 107%
viability, T/C [22]: 113%
viability, T/C [23]: 120%
viability, T/C [24]: 124%
viability, T/C [25]: 126%
viability, T/C [26]: 111%
viability, T/C [27]: 108%
viability, T/C [28]: 106%
viability, T/C [29]: 108%
viability, T/C [30]: 110%
viability, T/C [31]: 113%
viability, T/C [32]: 106%
viability, T/C [33]: 114%
viability, T/C [34]: 116%
viability, T/C [35]: 110%
viability, T/C [36]: 114%

IC50 (second compound 0.00316 µM): > 10 µM
IC50 (second compound 0.01 µM): > 10 µM
IC50 (second compound 0.0316 µM): > 10 µM
IC50 (second compound 0.1 µM): > 10 µM
IC50 (second compound 0.316 µM): > 10 µM
IC50 (second compound 1 µM): > 10 µM
Structure (SMILES): NC1c2ccccc2OC12CCN(c1cnc3c(N4CCCc5ncccc54)n[nH]c3n1)CC2 (stereo unspecified) + C=CC(=O)N1CCN(c2nc(OCC3CCCN3C)nc3c(F)c(-c4nc(N)cc(C)c4C(F)(F)F)c(Cl)cc23)C(C)C1
viability, T/C [1]: 113%
viability, T/C [2]: 107%
viability, T/C [3]: 114%
viability, T/C [4]: 113%
viability, T/C [5]: 108%
viability, T/C [6]: 89.9%
viability, T/C [7]: 108%
viability, T/C [8]: 104%
viability, T/C [9]: 115%
viability, T/C [10]: 102%
viability, T/C [11]: 115%
viability, T/C [12]: 106%
viability, T/C [13]: 116%
viability, T/C [14]: 107%
viability, T/C [15]: 115%
viability, T/C [16]: 125%
viability, T/C [17]: 121%
viability, T/C [18]: 99.7%
viability, T/C [19]: 107%
viability, T/C [20]: 106%
viability, T/C [21]: 114%
viability, T/C [22]: 114%
viability, T/C [23]: 102%
viability, T/C [24]: 104%
viability, T/C [25]: 110%
viability, T/C [26]: 116%
viability, T/C [27]: 112%
viability, T/C [28]: 111%
viability, T/C [29]: 115%
viability, T/C [30]: 97.1%
viability, T/C [31]: 114%
viability, T/C [32]: 105%
viability, T/C [33]: 119%
viability, T/C [34]: 113%
viability, T/C [35]: 112%
viability, T/C [36]: 86.1%

IC50 (second compound 0.00316 µM): 0.0194 µM
IC50 (second compound 0.01 µM): 0.0193 µM
IC50 (second compound 0.0316 µM): 0.0212 µM
IC50 (second compound 0.1 µM): 0.0222 µM
IC50 (second compound 0.316 µM): 0.0191 µM
IC50 (second compound 1 µM): 0.0174 µM
Structure (SMILES): Nc1ccn(C2OC(CO)C(O)C2(F)F)c(=O)n1 (stereo unspecified) + C=CC(=O)N1CCN(c2nc(OCC3CCCN3C)nc3c(F)c(-c4nc(N)cc(C)c4C(F)(F)F)c(Cl)cc23)C(C)C1
viability, T/C (second compound 0.00316 µM, first compound 0.00316 µM): 98.2%
viability, T/C (second compound 0.00316 µM, first compound 0.01 µM): 68.9%
viability, T/C [1]: 37.3%
viability, T/C [2]: 20.8%
viability, T/C [3]: 23.6%
viability, T/C [4]: 25.7%
viability, T/C (second compound 0.01 µM, first compound 0.00316 µM): 97.5%
viability, T/C (second compound 0.01 µM, first compound 0.01 µM): 73.5%
viability, T/C [7]: 32.8%
viability, T/C [8]: 20%
viability, T/C [9]: 24.9%
viability, T/C [10]: 22.6%
viability, T/C (second compound 0.0316 µM, first compound 0.00316 µM): 99.3%
viability, T/C (second compound 0.0316 µM, first compound 0.01 µM): 74.4%
viability, T/C [13]: 38.5%
viability, T/C [14]: 18.3%
viability, T/C [15]: 20.9%
viability, T/C [16]: 24%
viability, T/C (second compound 0.1 µM, first compound 0.00316 µM): 106%
viability, T/C (second compound 0.1 µM, first compound 0.01 µM): 86%
viability, T/C [19]: 34%
viability, T/C [20]: 23.8%
viability, T/C [21]: 21.7%
viability, T/C [22]: 23.2%
viability, T/C (second compound 0.316 µM, first compound 0.00316 µM): 98.9%
viability, T/C (second compound 0.316 µM, first compound 0.01 µM): 73%
viability, T/C [25]: 32.4%
viability, T/C [26]: 22.6%
viability, T/C [27]: 24.1%
viability, T/C [28]: 26.3%
viability, T/C (second compound 1 µM, first compound 0.00316 µM): 97.1%
viability, T/C (second compound 1 µM, first compound 0.01 µM): 64.2%
viability, T/C [31]: 35.5%
viability, T/C [32]: 21.9%
viability, T/C [33]: 17.9%
viability, T/C [34]: 24.3%
